Reference: patent US7393864B2, “Use of ClC3 chloride channel blockers to modulate vascular tone” (University of Iowa Research Foundation, priority 1999, dated 2008)

Assays:
Clcn3^−/− mice = assay: Recovery from sedatives in adult Clcn3-/- mice
[1] = tested on: swelling-induced Cl ion current in cultured human aortic and coronary vascular smooth muscle cells; assay: Whole-cell voltage-clamp of swelling-induced chloride current; type: cell-based; conditions: for Effect on swelling-induced Cl current: hypotonic conditions, whole-cell patch clamp, β-estradiol 10^−7 M, H-7 10^−5 M
Experimental: Electrophysiology. Chloride ion currents were measured from cultured human aortic and coronary vascular smooth muscle cells at room temperature (22-24° C. using standard whole-cell voltage-clamp techniques (Hamill et al., 1981; Lamb et al., 1994) and an Axopatch 200B patch-clamp amplifier driven by pClamp software (Axon Instruments). The hypotonic (250 mOsm/kg by freezing point depression) bath solution contained (mM): NaCl 125, MgCl2 2.5, CaCl2 2.5, HEPES 10, pH 7.2. Isotonic bath solution had the same ionic composition as the hypotonic solution except that the osmolality was adjusted to 300 mOsm/kg by adding mannitol. Pipette solution contained (mM): N′-methyl-D-glucamine chloride (NMDG—Cl) 135, EGTA 2, Mg-ATP 5, HEPES 10, pH 7.2 with osmolality adjusted to 300 mOsm/kg by adding mannitol. Thus, the chloride equilibrium potential remained 0 mV under both isotonic and hypotonic conditions. All components of the buffer solutions were obtained from Sigma. Pipette resistances were 3-5 MOhms.

[2] = tested on: isolated rings of rat aorta; assay: Contractile response to ED80 norepinephrine or KCl in isolated rings of rat aorta (earlier studies, Lamb and Barna 1998); conditions: for Vasodilator effect in the presence of NE or KCl: denuded blood vessel segments; for Effect on contractile response to ED80 concentrations of NE or KCl: rings with intact endothelium
Text: The above experiments were reported in Lamb and Barna, Am. J. Physiol., 275 H151 (1998) and Lamb and Barna, Am. J. Physiol., 275, 161 (1998), and are incorporated herein by reference.

erectile function = conditions: cited from earlier work
[3] = tested on: Clcn3 knockout, heterozygous and wild type mice; assay: Pentylenetetrazole-induced seizure susceptibility; type: in vivo, mouse; conditions: PTZ 70 mg/kg i.p.
Experimental: The proconvulsant, pentylenetetrazole (PTZ), was dissolved at 7 mg/ml in sterile 0.9% NaCl and administered to drug-naive mice at 70 mg/kg i.p. in a quiet daytime laboratory setting. Parameters measured during the 15-minute observation period included time to onset of generalized tonic-clonic or tonic seizures, and duration of the first generalized seizure. Lethality was assessed 60 minutes post-injection (Loscher and Nolting, 1991).

[4] = tested on: isolated rings of rat aorta; conditions: vasculature with intact endothelium; Lamb and Barna 1998; cited from earlier work
[5] = tested on: ion channel responsible for swelling-induced chloride conductance (CLC3); conditions: Duan et al. 1997; Nilius et al. 1994; cited from earlier work
[6] = tested on: rat thoracic aorta rings (vascular smooth muscle), intact or denuded endothelium; assay: Norepinephrine-induced contraction of isolated aortic rings, isometric tension; conditions: 10 μM tamoxifen, FIG. 2
Experimental: Adult male Sprague-Dawley rats (250-300 g) were obtained from Harlan Sprague Dawley. The animals were killed by exposure to 100% CO2 for 5 minutes, followed by cervical dislocation. Thoracic aortas were removed, cleaned of adherent connective tissue, and cut into 6 mm rings. The endothelium was left intact, and the rings were mounted in individual 10 ml isolated organ chambers using standard methods for recording of isometric tension. Contractile responses were recorded with an eight-channel MacLab8E and stored on a Power Macintosh 7200 computer. Passive stretch was set at 2.5 g, and the rings were allowed to equilibrate in physiological salt solution (PSS) at 37° C. for 120 minutes before the start of experimentation. PSS was aerated with a mixture of 95% 2-5% CO2; the composition was as follows (in mM): 130 NaCl, 4.7 KCl, 1.18 KH2PO4, 1.17 MgSO47H2O, 14.9 NaHCO3, 1.6 CaCl2H2O, 5.5 dextrose, and 0.03 CaNa2-EDTA 0.03 (pH 7.30).
Intact and denuded aortic blood vessel segments were prepared, mounted as described in Example 1. • 2. […] Aliquots of NE (Sigma Chemical, St. Louis, Mo.), which had been dissolved directly into aqueous solution was applied to the vessel segments at concentrations between 10^−10 and 10^−5 M, and the contractile response measured as described above.

[7] = tested on: rat thoracic aorta rings (vascular smooth muscle), intact or denuded endothelium; assay: KCl-induced contraction of isolated aortic rings, isometric tension; conditions: 10 μM tamoxifen, FIG. 3
Experimental: Adult male Sprague-Dawley rats (250-300 g) were obtained from Harlan Sprague Dawley. The animals were killed by exposure to 100% CO2 for 5 minutes, followed by cervical dislocation. Thoracic aortas were removed, cleaned of adherent connective tissue, and cut into 6 mm rings. The endothelium was left intact, and the rings were mounted in individual 10 ml isolated organ chambers using standard methods for recording of isometric tension. Contractile responses were recorded with an eight-channel MacLab8E and stored on a Power Macintosh 7200 computer. Passive stretch was set at 2.5 g, and the rings were allowed to equilibrate in physiological salt solution (PSS) at 37° C. for 120 minutes before the start of experimentation. PSS was aerated with a mixture of […]; the composition was as follows (in mM): 130 NaCl, 4.7 KCl, 1.18 KH2PO4, 1.17 MgSO47H2O, 14.9 NaHCO3, 1.6 CaCl2H2O, 5.5 dextrose, and 0.03 CaNa2-EDTA 0.03 (pH 7.30).
Data were expressed as a percentage of the maximal response of each ring to the agonist.
• 1. Intact and denuded aortic blood vessel segments were prepared and mounted as described in Example 1. • 2. […] Cl (Sigma Chemical, St. Louis, Mo.), was applied to the vessels at 2, 4, 8, 12, 16, 20, 28, 40, 60, 80, and 100 mM concentrations, and the contractile response measured as described above.

[8] = tested on: isolated aortic rings from male wild-type, heterozygote and Clcn3 knockout mice; assay: Dose-response to norepinephrine in isolated mouse aortic rings; conditions: L-NNA 10^−4 M, wild-type tissues, FIG. 17
Experimental: Animals were sacrificed by exposure to 100% CO2 for five minutes followed by cervical dislocation. Thoracic aortae were removed, cleaned of adherent connective tissue and cut into 4 rings. […] Contractile responses were recorded using a MacLab 8E and stored on a Power MacIntosh 6400/200 computer. Passive stretch was set at 5.0 mN and the rings were allowed to equilibrate in Physiologic Salt Solution (PSS) at 37° C. for 60 minutes prior to the start of experimentation.

Cc1ncc2n1-c1ccc(Cl)cc1C(c1ccccc1F)=NC2 [midazolam]
Recovery time from sedation (Clcn3^−/− mice): prolonged recovery time

C[C@]12CC[C@@H]3c4ccc(O)cc4CC[C@H]3[C@@H]1CC[C@@H]2O [β-estradiol]
Swelling-induced Cl current (ICl) ([1]; hypotonic plus estradiol 10^−7 M, +120 mV, n=5, hypotonic only 1451±495 pA): 3513±856 pA

O=C(O)c1cccnc1Nc1cccc(C(F)(F)F)c1 [niflumic acid]
Vasodilator effect in the presence of NE or KCl [2]: persisted
Effect on contractile response to ED80 concentrations of NE or KCl [2]: significantly inhibited

CN1CCc2cccc3c2[C@H]1Cc1ccc(O)c(O)c1-3 [apomorphine]
Men returned to sexual potency (erectile function; men whose dysfunction had psychological origins): about 70%
Time to response following administration (erectile function; sublingual): 20 to 40 min

CC1CNCCN1S(=O)(=O)c1cccc2cnccc12 (stereo not drawn) [H-7]
Effect on swelling-induced Cl current [1]: increased

C1CCc2nnnn2CC1 [PTZ, pentylenetetrazole]
Mice with generalized seizures ([3]; Clcn3^+/+ mice (7/8)): 87.5%
Onset of generalized seizures ([3]; Clcn3^+/+ mice): 280 ± 112 s
Mice with generalized seizures ([3]; Clcn3^+/− mice (13/15), 4-5 weeks old): 86.7%
Onset of generalized seizures ([3]; Clcn3^+/− mice): 215 ± 56 s
Mice with seizure activity ([3]; Clcn3^−/− mice (1/8)): 12.5%
Onset of seizure activity ([3]; Clcn3^−/− mice): 58 s

CC/C(=C(\c1ccccc1)c1ccc(OCCN(C)C)cc1)c1ccccc1 [tamoxifen, 1-p-β-dimethylaminoethoxyphenyl-trans-1,2-diphenylbut-1-ene]
Effect on norepinephrine-induced contraction of normal vasculature [4]: no effect
Block of ion channel responsible for swelling-induced chloride conductance [5]: block
Swelling-induced chloride current ([1]; hypotonic + H7 (10^−5 M) + tamoxifen, n=3, hypotonic 1204±313 pA): 878±493 pA
Effect on swelling-induced Cl current [1]: inhibited
Effect on NE sensitivity/contractility of endothelially compromised (denuded) vessel segments [6]: shifts the dose-response curve of NE back to the right
Effect on KCl sensitivity/contractility of denuded vessel segments [7]: corrects the increase in vascular smooth muscle sensitivity to KCl

O=S(=O)(O)c1cc(N=C=S)ccc1C=Cc1ccc(N=C=S)cc1S(=O)(=O)O [DIDS, 4,4′-diisothiocyanato stilbene-2,2′disulphonic acid]
Vasodilator effect in the presence of NE or KCl [2]: persisted
Effect on contractile response to ED80 concentrations of NE or KCl [2]: significantly inhibited

CCCC(C)C1(CC)C(=O)NC(=O)NC1=O (stereo not drawn) [pentobarbital]
Recovery time from sedation (Clcn3^−/− mice): prolonged recovery time
Incidence of death (Clcn3^−/− mice; even at reduced doses): increased incidence of death

NC(=NCCC[C@H](N)C(=O)O)N[N+](=O)[O-] [L-NNA]
Responsiveness to norepinephrine when endothelial nitric oxide synthase is inhibited [8]: increase in responsiveness
